Laboratory results: patent US10174307B2, “Performance enhancing genetic variants of E. coli” (priority 2014, dated 2019)
In brackets after ≈: the same amount, converted by molar mass.

Tested on: E. coli
Assay: Erythromycin MIC quoted in legend of growth assay with and without erythromycin
Assay type: cell-based
Details: Escherichia coli
Procedure: E. coli MG1655 was used as wild-type. The ALE selected rpoBE564V and rpoBE672K knock in strains were previously constructed by allelic replacement^7. To generate additional variants of […] and 672 positions, MAGE was performed on the wild-type strain by first transformation of recombineering plasmid pKD46^46, then inactivation of mutS with two nonsense mutations at residues 189 and 191 using an oligo (mutS_MUT). […] To perform each cycle of MAGE, the 1-Red system was induced with 0.5%-arabinose 45 minutes prior to generation of electrocompetent cells and oligo. Batch cultures were done in flask with M9 minimal media and 4 g/L of glucose at 37° C. or LB rich media. Glucose limited chemostats were carried out in a Bioflo 110 fermentor (New Brunswick Scientific, NJ). Glucose supplemented M9 was added to the reactor at 0.31 and 0.44 h^−1 dilution rates controlled by a peristaltic pump. Steady state was achieved after 3-5 residence times and was verified by biomass measurements. Phenotypic tests were performed by inoculation of media with an overnight pre-culture of glucose M9 media for all cases. Erythromycin was added to the media to the indicated concentration. The pH of M9 was adjusted to the indicated value with 6M HCl. Different substrates and mixtures were added to M9 to test growth in the indicated conditions. […]

SMILES: CC[C@H]1OC(=O)[C@H](C)[C@@H](O[C@H]2C[C@@](C)(OC)[C@@H](O)[C@H](C)O2)[C@H](C)[C@@H](O[C@@H]2O[C@H](C)C[C@H](N(C)C)[C@H]2O)[C@](C)(O)C[C@@H](C)C(=O)[C@H](C)[C@@H](O)[C@]1(C)O [erythromycin]
- MIC: 512 to 1020 µg/mL (≈ 698 to 1400 µM)
